Measured values as given in the NIST ThermoML archive (doi:10.1016/j.tca.2018.01.023).
Values joined by “and” are separate entries in the source; they are usually repeats but may differ in a detail not shown here. Equal values may be shown once.

Assay: molar heat capacity at constant pressure
Details: 101.33 kPa, Crystal, Small sample (50 mg) DSC

[Ca+2].[O]=[Mo](=[O])([O-])[O-] [calcium molybdate(VI)]
Details | molar heat capacity at constant pressure
596.4 K | 141.2 J/K/mol
597 K | 142.1 J/K/mol
597.4 K | 141.3 J/K/mol
598 K | 142.2 J/K/mol
598.4 K | 141.3 J/K/mol
599 K | 142.2 J/K/mol
599.4 K | 141.3 J/K/mol
600 K | 141.5 J/K/mol and 142.3 J/K/mol
600.4 K | 141.3 J/K/mol
601 K | 142.4 J/K/mol
601.4 K | 141.4 J/K/mol
602 K | 142.4 J/K/mol
602.4 K | 141.4 J/K/mol
603 K | 142.5 J/K/mol
603.4 K | 141.4 J/K/mol
604.1 K | 142.4 J/K/mol
604.4 K | 141.4 J/K/mol
605.1 K | 142.4 J/K/mol
605.4 K | 141.4 J/K/mol
606.1 K | 142.4 J/K/mol
606.4 K | 141.5 J/K/mol
607.1 K | 142.5 J/K/mol
607.4 K | 141.5 J/K/mol
608.1 K | 142.5 J/K/mol
608.4 K | 141.5 J/K/mol
609.1 K | 142.6 J/K/mol
609.4 K | 141.5 J/K/mol
610.1 K | 142.7 J/K/mol
610.4 K | 141.5 J/K/mol
611.1 K | 142.7 J/K/mol
611.4 K | 141.5 J/K/mol
612.1 K | 142.7 J/K/mol
612.4 K | 141.5 J/K/mol
613.1 K | 142.8 J/K/mol
613.4 K | 141.6 J/K/mol
614.1 K | 142.8 J/K/mol
614.4 K | 141.6 J/K/mol
615.1 K | 142.8 J/K/mol
615.4 K | 141.6 J/K/mol
616.1 K | 142.9 J/K/mol
616.4 K | 141.6 J/K/mol
617.1 K | 142.9 J/K/mol
617.4 K | 141.6 J/K/mol
618.1 K | 142.9 J/K/mol
618.4 K | 141.6 J/K/mol
619.1 K | 143 J/K/mol
619.4 K | 141.5 J/K/mol
620 K | 142.4 J/K/mol
620.1 K | 143.1 J/K/mol
620.4 K | 141.5 J/K/mol
621.1 K | 143.2 J/K/mol
621.4 K | 141.4 J/K/mol
622.1 K | 143.2 J/K/mol
622.4 K | 141.5 J/K/mol
623.1 K | 143.3 J/K/mol
623.4 K | 141.5 J/K/mol
624.1 K | 143.3 J/K/mol
624.4 K | 141.6 J/K/mol
624.5 K | 143.3 J/K/mol
625.4 K | 141.6 J/K/mol
626.4 K | 141.7 J/K/mol
627.4 K | 141.7 J/K/mol
628.4 K | 141.7 J/K/mol
629.4 K | 141.8 J/K/mol
630.4 K | 141.8 J/K/mol
631.4 K | 141.9 J/K/mol
632.4 K | 142.1 J/K/mol
633.4 K | 142.2 J/K/mol
634.4 K | 142.3 J/K/mol
635.4 K | 142.3 J/K/mol
636.4 K | 142.4 J/K/mol
637.4 K | 142.4 J/K/mol
638.4 K | 142.4 J/K/mol
639.4 K | 142.5 J/K/mol
640 K | 143.2 J/K/mol
640.4 K | 142.6 J/K/mol
641.4 K | 142.7 J/K/mol
642.4 K | 142.8 J/K/mol
643.4 K | 142.8 J/K/mol
644.4 K | 142.9 J/K/mol
645.4 K | 142.9 J/K/mol
646.4 K | 143 J/K/mol
647.4 K | 143 J/K/mol
648.4 K | 143 J/K/mol
649.4 K | 143.1 J/K/mol
650.4 K | 143.2 J/K/mol
651.4 K | 143.2 J/K/mol
652.4 K | 143.3 J/K/mol
653.4 K | 143.4 J/K/mol
654.4 K | 143.4 J/K/mol
655.4 K | 143.5 J/K/mol
656.4 K | 143.6 J/K/mol
657.4 K | 143.6 J/K/mol
658.4 K | 143.7 J/K/mol
659.4 K | 143.8 J/K/mol
660 K | 144 J/K/mol
660.4 K | 143.8 J/K/mol
661.4 K | 143.9 J/K/mol
662.4 K | 144 J/K/mol
663.4 K | 144 J/K/mol
664.4 K | 144.1 J/K/mol
665.4 K | 144.2 J/K/mol
666.4 K | 144.2 J/K/mol
667.4 K | 144.3 J/K/mol
668.4 K | 144.3 J/K/mol
669.4 K | 144.4 J/K/mol
670.4 K | 144.4 J/K/mol
671.4 K | 144.4 J/K/mol
672.4 K | 144.5 J/K/mol
673.4 K | 144.5 J/K/mol
674.4 K | 144.5 J/K/mol
675.4 K | 144.5 J/K/mol
676.4 K | 144.6 J/K/mol
677.4 K | 144.6 J/K/mol
678.4 K | 144.7 J/K/mol
679.4 K | 144.8 J/K/mol
680 K | 144.7 J/K/mol
680.4 K | 144.9 J/K/mol
681.4 K | 144.9 J/K/mol
682.4 K | 145 J/K/mol
683.4 K | 145.1 J/K/mol
684.4 K | 145.2 J/K/mol
685.4 K | 145.3 J/K/mol
686.4 K | 145.3 J/K/mol
687.4 K | 145.4 J/K/mol
688.4 K | 145.4 J/K/mol
689.4 K | 145.5 J/K/mol
690.4 K | 145.5 J/K/mol
691.4 K | 145.6 J/K/mol
692.4 K | 145.6 J/K/mol
693.4 K | 145.7 J/K/mol
694.4 K | 145.8 J/K/mol
695.4 K | 145.8 J/K/mol
696.4 K | 145.9 J/K/mol
697.4 K | 145.9 J/K/mol
698.4 K | 145.9 J/K/mol
699.4 K | 145.9 J/K/mol
700 K | 145.4 J/K/mol
700.4 K | 145.9 J/K/mol
701.4 K | 145.9 J/K/mol
702.4 K | 145.9 J/K/mol
703.4 K | 145.9 J/K/mol
704.4 K | 145.9 J/K/mol
705.4 K | 145.9 J/K/mol
706.4 K | 145.8 J/K/mol
707.4 K | 145.8 J/K/mol
708.4 K | 145.8 J/K/mol
709.4 K | 145.9 J/K/mol
710.4 K | 145.9 J/K/mol
711.4 K | 145.9 J/K/mol
712.4 K | 146 J/K/mol
713.4 K | 146 J/K/mol
714.4 K | 146 J/K/mol
715.4 K | 146 J/K/mol
716.4 K | 146.1 J/K/mol
717.4 K | 146.2 J/K/mol
718.4 K | 146.2 J/K/mol
719.4 K | 146.3 J/K/mol
720 K | 146.1 J/K/mol
720.4 K | 146.3 J/K/mol
721.4 K | 146.3 J/K/mol
722.4 K | 146.3 J/K/mol
723.4 K | 146.4 J/K/mol
724.4 K | 146.4 J/K/mol
725.4 K | 146.5 J/K/mol
726.4 K | 146.5 J/K/mol
727.4 K | 146.6 J/K/mol
728.4 K | 146.6 J/K/mol
729.4 K | 146.6 J/K/mol
730.4 K | 146.7 J/K/mol
731.4 K | 146.7 J/K/mol
732.4 K | 146.7 J/K/mol
733.4 K | 146.7 J/K/mol
734.4 K | 146.7 J/K/mol
735.4 K | 146.7 J/K/mol
736.4 K | 146.7 J/K/mol
737.4 K | 146.7 J/K/mol
738.4 K | 146.8 J/K/mol
739.4 K | 146.9 J/K/mol
740 K | 146.8 J/K/mol
740.4 K | 147 J/K/mol
741.4 K | 147 J/K/mol
742.4 K | 147.1 J/K/mol
743.4 K | 147.1 J/K/mol
744.4 K | 147.1 J/K/mol
745.4 K | 147.2 J/K/mol
746.4 K | 147.2 J/K/mol
747.4 K | 147.3 J/K/mol
748.4 K | 147.3 J/K/mol
749.4 K | 147.3 J/K/mol
750.4 K | 147.3 J/K/mol
751.4 K | 147.4 J/K/mol
752.4 K | 147.4 J/K/mol
753.4 K | 147.4 J/K/mol
754.4 K | 147.5 J/K/mol
755.4 K | 147.5 J/K/mol
756.4 K | 147.6 J/K/mol
757.4 K | 147.7 J/K/mol
758.4 K | 147.7 J/K/mol
759.4 K | 147.8 J/K/mol
760 K | 147.4 J/K/mol
760.4 K | 147.8 J/K/mol
761.4 K | 147.8 J/K/mol
762.4 K | 147.7 J/K/mol
763.4 K | 147.7 J/K/mol
764.4 K | 147.7 J/K/mol
765.4 K | 147.8 J/K/mol
766 K | 147.5 J/K/mol
766.4 K | 147.9 J/K/mol
